Test results published in article PMC6669608, “Evaluation of Oxasqualenoids from the Red Alga Laurencia viridis against Acanthamoeba” (Marine Drugs, 2019).

Columns and labels:
[1] = system: Acanthamoeba castellanii Neff trophozoites; assay: In vitro activity against Acanthamoeba trophozoites (alamarBlue colorimetric assay); assay type: cell-based, Acanthamoeba castellanii Neff (ATCC 30010); conditions: 42.5 µM (25 µg/mL)
[2] = system: Acanthamoeba castellanii Neff cysts; assay: In vitro activity against Acanthamoeba castellanii Neff cysts (alamarBlue); assay type: cell-based; conditions: 168 h, mature cysts, 7 d incubation, read-out: IC50, cysticidal activity against A. castellanii Neff
Method: The cysticidal activity of DT was determined by the alamarBlue™ assay and confirmed visually by inverted microscopy. Cysts of A. castellanii Neff were prepared as previously described. Briefly, trophozoites were transferred from PYG medium based cultures (trophozoite medium) to Neff’s encystment medium (NEM; 0.1 M KCl, 8 mM MgSO4·7H2O, 0.4 mM CaCl2·2H2O, 1 mM NaHCO3, 20 mM ammediol (2-amino-2-methyl-1,3-propanediol; Sigma Aldrich, Madrid, Spain), pH 8.8 at 25 °C) and were cultured in this medium with gentle shaking for a week in order to obtain mature cysts. After that, mature cysts were harvested and washed twice using PYG medium.
A serial dilution of the tested molecules was made in PYG. The in vitro susceptibility assay was performed in sterile 96-well microtiter plates (Corning™). To these wells, containing 50 µL of drug dilutions, 5 × 10^4 mature cysts of Acanthamoeba/mL were added. After 7 d of incubation with the drugs, the plate was centrifuged at 3000 rpm for 10 min. The supernatant was removed and replaced with 100 µL of fresh PYG medium in each well. Finally, 10 μL of the Alamar Blue Assay Reagent (Biosource, Europe, Nivelles, Belgium) was placed into each well, and the plates were then incubated for 144 h at 28 °C. The emitted fluorescence was periodically examined with an Enspire microplate reader (PerkinElmer, Waltham, MA, USA) at 570/585 nm.

A. castellanii = assay: Measurement of ATP levels (CellTiter-Glo); assay type: cell-based, Acanthamoeba castellanii; conditions: IC90, 24 h
Method: The ATP level was measured using a Cell Titer-Glo® Luminescent Cell Viability Assay (Promega, Alcobendas, Madrid). This required adding a single reagent (CellTiter-Glo® Reagent, Promega, Alcobendas, Madrid), which relies on the properties of a proprietary thermostable luciferase, generating a stable proportional luminescent signal to the amount of ATP present, which is directly proportional to the number of cells present in culture. After incubation, treated amoebas were mixed with the kit reagent into a white-wall 96-well microtiter plate (Nunc; Thermo Fisher Scientific Inc., Waltham, MA, USA) following the manufacturer’s instructions for measurement of the luminescence on a PerkinElmer spectrophotometer. The effect of the drug on the ATP production was evaluated by incubating 10^5 cells/mL with the previously calculated IC90 of DT following the manufacturer´s recommendations. As a negative control, an A. castellanii culture incubated with PYG medium was used.

[3] = system: Acanthamoeba polyphaga trophozoites; assay: In vitro activity against trophozoites of clinical strain A. polyphaga; assay type: cell-based, Acanthamoeba polyphaga genotype T4 ATCC 30461; conditions: trophozoite stage
Method: Subsequently, DT was tested against two clinical isolates, A. griffini, genotype T3 obtained in a previous study and A. polyphaga genotype T4 ATCC 30461. Those strains were grown axenically in the same medium as A. castellanii Neff.
The in vitro activities of the different compounds of Laurencia were evaluated using a previously developed colorimetric assay based on the alamarBlue™ Cell Viability Reagent assay (Life Technologies, Barcelona, Spain). Briefly, 50 µL of 5 × 10⁴ trophozoites/mL were seeded onto a 96-well microtiter plate. After 15 min, the adherence of the cells to the plate bottom was confirmed by the use of the inverted microscope Leica DMIL (Leica, Wetzlar, Germany). Furthermore, 50 µL of serial dilutions of each compound was added to the 96-well microtiter plate. Finally, alamarBlue™ was placed into each well at 10% of the final volume and incubated at 26 °C with slight agitation. After 96 h, the fluorescence was measured with EnSpire Multimode Plate Reader (Perkin Elmer, Madrid, Spain) at a wavelength of 570/585 nm. The inhibitory concentration to inhibit the growth of 50% of the parasites (IC50) was calculated through nonlinear regression analysis with 95% confidence limits using the software Sigma Plot 12.0 (Systat Software Inc., London, UK). The experiments were performed three times each, allowing for standard deviation.

C=C(CC[C@H](O)[C@@]1(C)CC[C@H](C(C)(C)O)O1)[C@H]1CC[C@H]2O[C@@H]([C@]3(C)CC[C@@H](Br)C(C)(C)O3)CC[C@]2(C)O1 [Compound 1, dehydrothyrsiferol]
inhibitory effect on the growth of A. castellanii trophozoites (microscopy) [1]: many of the treated cells were dead | IC50 [2]: 39.27 ± 0.14 µM | ATP level maintained after treatment (A. castellanii): 19.52% | decrease in the total ATP level in comparison to the negative control (A. castellanii): 80.48% | IC50 [3]: 73.4 ± 4.02 µM
